Source: US10945438B2, “Methods and compositions for reducing fungal infestation and improving grass quality” (BASF CORPORATION, priority 2015, dated 2021)

Test system: yellow spot
Assay: Percent turf area exhibiting yellow spot symptoms (Example 2)
Type: in vivo, Agrostis palustris
Details: alone versus in combination
Method: In another aspect, a composition herein treats or reduces yellow spot disease. Yellow spot appears in the form of yellow, chlorotic, circular discrete patches ranging from dime/quarter size up to 2-3 inches diameter on bentgrass putting greens, tees, and approaches.
The study was conducted on “A-1” creeping bentgrass maintained as a golf course putting green. Plots were mowed 6 times per week with clippings collected. The study was irrigated to prevent drought stress. Individual plots were 3 ft×6 ft and arranged in a randomized complete block design with 4 replications. Chipco 26GT (4 fl oz/1000 ft^2) was applied to the study for suppression of dollar spot and brown patch on 2 May, 9 June, 29 July, and 20 August. Treatments were applied in water equivalent to 2 gal 1000 ft-2 with a CO2-powered sprayer equipped with a TeeJet AI9508E nozzle at 50 psi. Treatments were initiated on 24 April and applied on 28-day intervals. The study was irrigated with 0.1-0.2 inches of water after all treatments were applied. […] Turfgrass quality was assessed on 24 April, 21 May, 18 June, 16 July, 13 August, and 2 September. NDVI was assessed on 21 May, 18 June, 17 July, 13 August, and 2 September. Root length (3 subsamples per plot) was assessed on 18 September.

CCCOC(=O)NCCCN(C)C [propamocarb]
Control of yellow spot disease (in words): not controlled
